# Results as given in ChEMBL document CHEMBL6092219, “Structure-Based Design of Covalent SARS-CoV-2 Papain-like Protease Inhibitors” (J Med Chem, 2024).
# Target: Replicase polyprotein 1ab (Severe acute respiratory syndrome coronavirus 2, UniProt P0DTD1)
# Assay: Inhibition of SARS-CoV-2 PL protease preincubated for 30 mins followed by substrate addition measured after 3 hrs
# Conditions: not given
row,Compound,IC50 [µM]
1,CCn1ccc(-c2cc(-c3cnn(C)c3)cc([C@@H](C)NC(=O)c3ccccc3CCC(=O)NNC(=O)/C=C/C(=O)NC34CC(C3)C4)c2)n1,0.1
2,CCOC(=O)/C=C/C(=O)NCC(=O)NCc1ccccc1C(=O)NC1(c2cc(-c3cnn(C)c3)cc(-c3ccn(CC)n3)c2)CC1,1.1
3,CCn1ccc(-c2cc(-c3cnn(C)c3)cc([C@@H](C)NC(=O)c3ccccc3CCC(=O)NNC(=O)/C=C/C(=O)N3CC(C(F)(F)F)C3)c2)n1,0.1
4,CCn1ccc(-c2cc(-c3cnn(C)c3)cc([C@@H](C)NC(=O)c3ccccc3CCC(=O)NNC(=O)/C=C/CN(C)C)c2)n1,> 5
5,CCn1ccc(-c2cc(-c3cnn(C)c3)cc(C3(NC(=O)c4ccccc4CNC(=O)CNC(=O)/C=C/C(=O)N4CC(F)(F)C4)CC3)c2)n1,1.6
6,CCn1ccc(-c2cc(-c3cnn(C)c3)cc([C@@H](C)NC(=O)c3ccccc3CCC(=O)NNC(=O)/C=C/C(=O)OC(C)(C)C)c2)n1,0.1
7,CCn1ccc(-c2cc(-c3cnn(C)c3)cc([C@@H](C)NC(=O)c3ccccc3CCC(=O)NNC(=O)/C=C/C(=O)N(C)C)c2)n1,0.7
8,C=CS(=O)(=O)NNC(=O)CCc1ccccc1C(=O)N[C@H](C)c1cc(-c2cnn(C)c2)cc(-c2ccn(CC)n2)c1,0.3

# Test system: not listed separately
# Assay: (§1) Cytotoxicity against African green monkey Vero E6 cells incubated for 48 hrs by Neutral Red method
# Type: toxicity, cell-based, Vero C1008
# Conditions: chlorocebus sabaeus, Vero E6 cells
row,Compound,CC50 at 48 h [µM]
1,CCn1ccc(-c2cc(-c3cnn(C)c3)cc([C@@H](C)NC(=O)c3ccccc3CCC(=O)NNC(=O)C34CC(C3)C4)c2)n1,> 250
2,CCn1ccc(-c2cc(-c3cnn(C)c3)cc([C@@H](C)NC(=O)c3ccccc3CCC(=O)NCC(=O)CF)c2)n1,> 250
3,CCn1ccc(-c2cc(-c3cnn(C)c3)cc([C@@H](C)NC(=O)c3ccccc3CCC(=O)NNC(=O)/C=C/C(=O)NC34CC(C3)C4)c2)n1,> 250
4,CCOC(=O)/C=C/C(=O)NCC(=O)NCc1ccccc1C(=O)NC1(c2cc(-c3cnn(C)c3)cc(-c3ccn(CC)n3)c2)CC1,> 250
5,CCn1ccc(-c2cc(-c3cnn(C)c3)cc([C@@H](C)NC(=O)c3ccccc3CCC(=O)NNC(=O)/C=C/CN(C)C)c2)n1,> 250
6,CCn1ccc(-c2cc(-c3cnn(C)c3)cc([C@@H](C)NC(=O)c3ccccc3CCC(=O)NNC(=O)/C=C/C(=O)N3CC(C)(C)C3)c2)n1,> 250
7,CCn1ccc(-c2cc(-c3cnn(C)c3)cc(C3(NC(=O)c4ccccc4CNC(=O)CNC(=O)/C=C/C(=O)N4CC(F)(F)C4)CC3)c2)n1,> 250
8,CCn1ccc(-c2cc(-c3cnn(C)c3)cc([C@@H](C)NC(=O)c3ccccc3CCC(=O)NNC(=O)/C=C/C(=O)N(C)C)c2)n1,> 250
9,CCn1ccc(-c2cc(-c3cnn(C)c3)cc([C@@H](C)NC(=O)c3ccccc3CCC(=O)NNC(C)=O)c2)n1,> 250

# Test system: Vero C1008
# Assay: as §1
# Type: toxicity, cell-based
# Conditions: chlorocebus sabaeus, vero c1008, 48 h
row,Compound,CC50 [µM]
1,C=CS(=O)(=O)NNC(=O)CCc1ccccc1C(=O)N[C@H](C)c1cc(-c2cnn(C)c2)cc(-c2ccn(CC)n2)c1,31

# Test system: SARS-CoV-2
# Assay: microbe, parasite or virus in culture
# Type: functional, organism-based
# Conditions: Severe acute respiratory syndrome coronavirus 2, Caco-2, 24 h
row,Compound,EC50 [µM]
1,CCn1ccc(-c2cc(-c3cnn(C)c3)cc([C@@H](C)NC(=O)c3cc(OCCN(C)C)ccc3C)c2)n1,0.42

# Test system: not listed separately
# Assay: AUClast in C57BL/6J mouse at 50 mg/kg, ip measured 5 hrs by LC/MS/MS analysis
# Type: ADME, organism-based
# Conditions: in vivo
row,Compound,AUClast [ng·h/mL]
1,CCn1ccc(-c2cc(-c3cnn(C)c3)cc([C@@H](C)NC(=O)c3ccccc3CCC(=O)NNC(=O)/C=C/C(=O)N3CC(C)(C)C3)c2)n1,2513

# Test system: SARS-CoV-2
# Assay: microbe, parasite or virus in culture
# Type: functional, organism-based, Vero E6
# Conditions: Severe acute respiratory syndrome coronavirus 2, Vero C1008, 24 h
row,Compound,EC50 [µM]
1,CCn1ccc(-c2cc(-c3cnn(C)c3)cc([C@@H](C)NC(=O)c3ccccc3CCC(=O)NNC(=O)/C=C/C(=O)NC34CC(C3)C4)c2)n1,6.13
2,CCn1ccc(-c2cc(-c3cnn(C)c3)cc([C@@H](C)NC(=O)c3ccccc3CCC(=O)NNC(=O)/C=C/C(=O)OC(C)(C)C)c2)n1,0.0992

# Test system: not listed separately
# Assay: Metabolic stability in mouse liver microsomes assessed as half life at 1 uM incubated for 60 mins by LC/MS/MS analysis
# Type: ADME, Microsome
# Conditions: liver microsomes
row,Compound,half-life at 1 µM [h]
1,CCn1ccc(-c2cc(-c3cnn(C)c3)cc([C@@H](C)NC(=O)c3ccccc3CCC(=O)NNC(=O)/C=C/C(=O)N3CC(C)(C)C3)c2)n1,1.4

# Test system: not listed separately
# Assay: Cmax in C57BL/6J mouse at 50 mg/kg, ip measured 0.5 hrs by LC/MS/MS analysis
# Type: ADME, organism-based
# Conditions: in vivo
row,Compound,Cmax [ng/mL]
1,CCn1ccc(-c2cc(-c3cnn(C)c3)cc([C@@H](C)NC(=O)c3ccccc3CCC(=O)NNC(=O)/C=C/C(=O)N3CC(C)(C)C3)c2)n1,995

# Test system: not listed separately
# Assay: Cmax in C57BL/6J mouse at 50 mg/kg, po measured 5 hrs by LC/MS/MS analysis
# Type: ADME, organism-based
# Conditions: in vivo
row,Compound,Cmax [ng/mL]
1,CCn1ccc(-c2cc(-c3cnn(C)c3)cc([C@@H](C)NC(=O)c3ccccc3CCC(=O)NNC(=O)/C=C/C(=O)N3CC(C)(C)C3)c2)n1,< 10
